The values that follow are results of earlier work, collected in patent US12176074B2, “Compound function prediction method based on neural network and connectivity map algorithm” (BEIJING GIGACEUTICALS TECH. CO. LTD, priority 2021, dated 2024).

As a reminder, the EC50 is the concentration giving half of the maximal effect.

In the series the test system is novel coronavirus (SARS-CoV-2). Particulars: specific data in Chinese patent application 202010309486.2; read-out: EC50, effect for fighting against the novel coronavirus.

As for `O=C1C[C@@H](c2ccc(O[C@@H]3O[C@H](CO)[C@@H](O)[C@H](O)[C@H]3O)cc2)Oc2cc(O)ccc21` [liquiritin], the EC50 was 2.39 µM.
